In assay [1] the test system is CHO-K1 line 2.14 cells secreting hsCD2. Nature of the assay: Quantitative assay of hsCD2 expression level in line 2.14 cells cultured with NB-DNJ. The format is cell-based, Chinese hamster. The conditions noted are these: 0.5-2 mM NB-DNJ. How it is done: For the expression of hsCD2, the Xba I-Bam H1 fragment was sub-cloned into the polylinker of pEE6.hcmv-GS (Bebbington and Hentschel, 1987; Davis et al., 1990). The expression construct (20 μg) was transfected with calcium phosphate into CHO-K1 cells and methionine sulfoximine-resistant clones were selected as described previously (Davis et al., 1990). To detect expression the conventional solid-phase, radioactive inhibition binding assay (Barclay and Ward, 1982) was used. This utilized human sCD2 domain 1 expressed as a fusion protein as described for rat CD2 domain 1 (Driscoll et al., 1991) adsorbed onto vinyl microtitre plates as a binding target and monitored inhibition of the binding of the anti-human CD2 mAb, X3 mAb to the plate; the bound mAb was detected with [I^125 ]-labelled rabbit anti-mouse F(ab'). For large scale production the highest-expressing cell line (line 2.14) was grown to confluence in cell factories (Nunc) and sodium butyrate was then added to a final concentration of 2 mM. The cultures were then left for a further 3-4 weeks prior to harvesting.
In initial optimization tests with NB-DNJ, 2×500 cm^2 flasks (Nunc) were seeded with line 2.14 cells in 75 ml glutamine-free medium GMEM-S (Gibco Ltd, Glasgow, U.K.) 10% Fetal Calf Serum (FCS) containing NB-DNJ at 0 mM, 0.5 mM, 1 mM, 1.5 mM or 2 mM. […]

The next assay deals with T1, glucosidase I (Cricetulus griseus, UniProt A0A9J7K0I4).
T1 construct: endogenous in cells; host or cells: CHO-K1, transfected line 2.14 (the transfected gene is hsCD2, not glucosidase I)
T1 sequence (A0A9J7K0I4 1-834): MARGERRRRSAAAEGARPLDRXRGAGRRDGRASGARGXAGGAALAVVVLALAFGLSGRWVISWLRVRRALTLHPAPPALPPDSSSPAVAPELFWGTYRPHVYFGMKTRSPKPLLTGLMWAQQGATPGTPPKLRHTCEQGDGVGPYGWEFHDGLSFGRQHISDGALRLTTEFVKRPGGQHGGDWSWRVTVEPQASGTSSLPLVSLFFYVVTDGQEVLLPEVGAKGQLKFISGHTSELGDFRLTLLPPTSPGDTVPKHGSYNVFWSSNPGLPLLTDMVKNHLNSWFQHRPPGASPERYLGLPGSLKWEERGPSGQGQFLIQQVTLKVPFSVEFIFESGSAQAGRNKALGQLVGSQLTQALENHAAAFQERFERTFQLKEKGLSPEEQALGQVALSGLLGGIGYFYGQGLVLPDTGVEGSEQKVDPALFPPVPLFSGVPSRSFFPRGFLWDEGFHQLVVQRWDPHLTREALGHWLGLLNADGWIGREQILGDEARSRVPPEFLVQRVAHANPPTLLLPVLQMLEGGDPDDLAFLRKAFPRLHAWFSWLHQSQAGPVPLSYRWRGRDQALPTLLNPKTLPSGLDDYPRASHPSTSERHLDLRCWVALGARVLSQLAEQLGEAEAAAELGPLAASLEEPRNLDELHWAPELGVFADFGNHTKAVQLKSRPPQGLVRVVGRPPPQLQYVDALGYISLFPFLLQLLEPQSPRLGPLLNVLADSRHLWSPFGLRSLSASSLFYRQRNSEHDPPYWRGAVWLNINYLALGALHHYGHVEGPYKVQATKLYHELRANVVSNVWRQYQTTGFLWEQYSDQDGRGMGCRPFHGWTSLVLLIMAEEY
Nature of the assay: Endo H sensitivity of hsCD2 secreted by transfected CHO-K1 cells (line 2.14) cultured with NB-DNJ. The format is cell-based, Chinese hamster. How it is done: In initial optimization tests with NB-DNJ, 2×500 cm^2 flasks (Nunc) were seeded with line 2.14 cells in 75 ml glutamine-free medium GMEM-S (Gibco Ltd, Glasgow, U.K.) 10% Fetal Calf Serum (FCS) containing NB-DNJ at 0 mM, 0.5 mM, 1 mM, 1.5 mM or 2 mM. After 6 days 100 mls of CB2, 10% FCS containing sodium butyrate to give a final concentration of 2 mM and NB-DNJ at 0, 0.5 mM, 1 mM, 1.5 mM or 2 mM was added. Ten days after the addition of the butyrate, 0.5 ml samples of the supernatant were taken for comparison of secretion levels. The cultures were left for a total of 15 days before harvesting the supernatants. When large amounts of endo H treated hsCD2 were required for crystallization, the cells were grown to confluence in cell factories as described above and NB-DNJ was added with the sodium butyrate to a final concentration of 1.5 mM. These cultures were also left for a further 3-4 weeks prior to harvesting.
For analysis of endo H sensitivity after preparation of the hsCD2 in the presence of various concentrations of NB-DNJ, 10 μg aliquots of the purified glycoproteins were incubated with 4, 20 or 100 mU/ml endo H-(Boehringer Mannheim) in 30 μl of 100 mM sodium acetate, pH 5.2. One unit (U) of endo H is the enzyme activity which hydrolyzes one micromole […] of dansyl-Asn-(GlcNAc)2 -(Man)5 within one minute at 37° C., pH 5.5. After incubation overnight at 370 the digested samples were boiled in 1% SDS under reducing conditions prior to electrophoresis in 15% SDS-PAGE gels. For large-scale endo H treatment of hsCD2 for crystallization tests, 4 mgs of the purified glycoprotein was concentrated to 1-2 mg/ml in 0.1 M sodium acetate, pH 5.2, and then digested with 100 mU/ml endo H overnight at 370. […] The eluting protein was determined to be essentially free of contaminating hsCD2 bearing non-endo H sensitive oligosaccharides by SDS-PAGE on a 15% acrylamide gel. […]

With `CCCCN1C[C@H](O)[C@@H](O)[C@H](O)[C@H]1CO` [NB-DNJ, N-butyl deoxynojirimycin], the “reduction in expression of hsCD2” value in assay [1] is “three- to four-fold reduction in expression”. Also, the “oligosaccharides of hsCD2 converted to endo H sensitive structures” value on glucosidase I (N-butyldeoxynojirimycin added to cultures of non-mutant CHO cells) is on record as more than 85%. For the same compound, at glucosidase I (NB-DNJ 1.5 mM in culture of line 2.14 CHO cells), the “inhibition of glucosidase I (judged by endo H sensitivity of hsCD2)” value is recorded as “complete”. In addition, on glucosidase I (highest concentration of NB-DNJ (2 mM)), the “hsCD2 remaining endo H resistant (densitometric analysis of gel)” value is on record as “approximately 15%”.

These data come from patent US6069235A, “Method for carbohydrate engineering of glycoproteins” (Monsanto Company, priority 1994, dated 2000).
